ChEMBL document CHEMBL1151591, “Structure-activity relationship of novel tallimustine derivatives: synthesis and antitumor activity” (Bioorg Med Chem Lett, 1996)

Key:
L1210 = assay: In vitro inhibition of L1210 murine leukemia (Drug sensitivity was determined by counting surviving cells after 48 hr of continuous exposure to at least 4 conc. of drug); assay type: functional, cell-based; details: Mus musculus, L1210, 48 h
Mus musculus [1] = assay: In vivo inhibition of L1210 murine leukemia, expressed as optimal dose (CDF21 mice were given an injection of 105 cells i.p. and treated on day 1); assay type: functional
Mus musculus [2] = assay: In vivo cytotoxicity against L1210 murine leukemia, expressed as median survival time of treated vs. untreated mice X 100 (CDF21 mice were given an injection of 105 cells i.p. and treated on day 1); assay type: functional

| Structure (SMILES) | IC50 (L1210) | Optimal dose (Mus musculus [1]) | T/C (Mus musculus [2]) |
| --- | --- | --- | --- |
| Cl.Cn1cc(NC(=O)c2ccc(N(CCCl)CCCl)cc2)cc1C(=O)Nc1cc(C(=O)Nc2cc(C(=O)NCCC(=N)N)n(C)n2)n(C)c1 | 0.03 µg/mL | 6.25 mg/kg | 213% |
| Cl.Cn1cc(NC(=O)c2csc(NC(=O)c3ccc(N(CCCl)CCCl)cc3)n2)cc1C(=O)Nc1cc(C(=O)NCCC(=N)N)n(C)n1 | 7.2 µg/mL | – | – |
| Cl.Cn1cc(NC(=O)c2ccc(N(CCCl)CCCl)cc2)cc1C(=O)Nc1cc(C(=O)Nc2cc(C(=O)NCCC(=N)N)n(C)n2)n(C)n1 | 0.11 µg/mL | 25 mg/kg | 259% |
| C=C(Br)C(=O)Nc1nc(C(=O)Nc2cc(C(=O)Nc3cc(C(=O)NCCC(=N)N)n(C)c3)n(C)c2)cs1.Cl | 23.8 µg/mL | – | – |
| Cl.Cn1cc(NC(=O)c2cc(NC(=O)c3csc(NC(=O)c4ccc(N(CCCl)CCCl)cc4)n3)cn2C)cc1C(=O)NCCC(=N)N | 32.5 µg/mL | – | – |
| Cl.Cn1cc(NC(=O)c2cc(NC(=O)c3cc(NC(=O)c4ccc(N(CCCl)CCCl)cc4)nn3C)cn2C)cc1C(=O)NCCC(=N)N | 1.39 µg/mL | 12.5 mg/kg | 118% |
| C=C(Br)C(=O)Nc1cc(C(=O)Nc2cc(C(=O)Nc3cc(C(=O)NCCC(=N)N)n(C)c3)n(C)c2)n(C)n1.Cl | 0.15 µg/mL | 30 mg/kg | 181% |
| Cl.Cn1cc(NC(=O)c2cc(NC(=O)c3cc(NC(=O)c4ccc(N(CCCl)CCCl)cc4)cn3C)cn2C)cc1C(=O)NCCC(=N)N [TALLIMUSTINE CHLORIDE] | – | 3.13 mg/kg | 175% |
